Laboratory results taken from patent US12648941B2, “Piperidine urea derivatives for use as inotropic agents” (Helsinn Healthcare SA, priority 2021, dated 2026).
Read-outs that look alike come from different tables or passages of the source.

How the values were obtained:
Assay type in all cases: in vivo, human
[1] = Phase 1 single ascending dose study, plasma pharmacokinetics; settings: for AUClast/D / Cmax/D / AUC∞/D / CL/F / λz / AUC(0-t) / Cmax / AUC(0-inf) / MRT / Vd/F: geometric mean; for AUC(0-t): po; for Vd/F: read-out: Vz/F
Description: Single-center, randomized, double-blind, placebo-controlled, single ascending dose (SAD) study.
Screening examinations were performed within 28 days prior to dosing. Eligible subjects returned to the study center in the morning of Day-1 and remained in-patient until discharge at 72 hours after dosing (morning of Day 4) if there were no safety issues. The oral dose was administered in the morning of Day 1. Subjects returned to the clinic 7 days after treatment, in the morning of Day 8 (±1 day), for the safety assessments.
Healthy male non-smoking subjects, between 18 and 50 years of age inclusive, with a body mass index (BMI) between 18.5 and 29.9 kg/m^2 inclusive. Cohorts of 8 subjects per dose step were planned. Cohort 1 (10 mg or placebo) was stopped after dosing of 4 subjects. Cohorts 2 to 4 consisted of 8 subjects each, i.e., a total number of 28 subjects were randomized and completed the study. There were no withdrawals.
HM01 HCl powder in gelatine capsules. Capsules with the strength of 0.1 mg and 1.0 mg and 10 mg for cohort 1 were available. • Cohort 1:10 mg HM01 • Cohort 2:0.1 mg HM01 Cohort 3:0.3 mg HM01 Cohort 4:1.0 mg HM01
Subjects were dosed in a fasted state (no food for at least 8 hours). Access to food was restricted until 4 hours after dosing. Capsules were administered orally together with 240 mL water.
Blood samples for analytical assay of HM01 and the 3 major metabolites (M2, M6 and M9) were collected at pre-dose (within 60 minutes prior to drug administration), and at 0.25, 0.5, 1, 1.5, 2, 3, 4, 6, 8, 12, 16, 24, 30, 36, 48, 60 and 72 hours post dose (18 samples). Urine was collected for 24 hours after dosing. Blood and urine samples were analyzed for HM01 and its metabolites concentrations using validated LC-MS/MS methods.
PK parameters estimated included Cmax (maximum observed concentration), Cmax/D (Cmax per dose unit), tmax (peak time), Clast (last measurable concentration above the lower limit of quantification), tlast (time of Clast), AUC(0-24) and AUClast (area under the plasma concentration-time curve from time zero to 24 hours and to the last measurable concentration, tlast, respectively), AUClast/D (AUClast per dose unit), AUC∞(area under the plasma concentration-time curve from time zero to infinity), AUC∞(/D (AUC∞ per dose unit), t1/2 (apparent terminal half-life), CL/F (systemic clearance after extravascular administration, only for the parent drug), Vz/F (apparent volume of distribution after extravascular administration, only for the parent drug), MRT (mean residence time).

[2] = system: insulin-like growth factor-1 (IGF-1); assay: Phase 1 SAD pharmacodynamics, serum IGF-1 (ELISA); settings: 0.1-10 mg
Description: Blood samples for determination of growth hormone (GH), insulin-like growth factor-1 (IGF-1), adrenocorticotropic hormone (ACTH), prolactin, cortisol and aldosterone in serum at pre-dose and 0.5, 1, 2, 3, 4, 6 and 24 hours post-dose were collected by venous puncture. All biomarkers were determined using enzyme linked immunosorbent assays (ELISA). Simplified nutritional appetite questionnaire based on appetite assessments at Day −1 after dinner, and on Day 1 pre-dose, 1, 2, 4, 8, and 24 hours after dosing. Stool diary starting on Day 1 until discharge on Day 4.

[3] = Phase 1 SAD, safety and tolerability
Description: Single-center, randomized, double-blind, placebo-controlled, single ascending dose (SAD) study. Screening examinations were performed within 28 days prior to dosing. Eligible subjects returned to the study center in the morning of Day-1 and remained in-patient until discharge at 72 hours after dosing (morning of Day 4) if there were no safety issues. The oral dose was administered in the morning of Day 1. Subjects returned to the clinic 7 days after treatment, in the morning of Day 8 (±1 day), for the safety assessments. Adverse events (AEs), vital signs (blood pressure, pulse rate and body temperature), 12-lead ECG, Holter-ECG, physical examination (PE), and laboratory tests (hematology, clinical chemistry, and urinalysis) assessed during screening and several times throughout the study.

[4] = 0.1 mg HM01 single oral dose, N = 6
[5] = 0.3 mg HM01 single oral dose, N = 6
[6] = 0.3 mg HM01 single oral dose, n = 5
[7] = 1.0 mg HM01 single oral dose, N = 6
[8] = 10 mg HM01 single oral dose, N = 3
[9] = male, human, plasma, 0.3 mg HM01 single oral dose, n = 5
[10] = male, human, plasma, 1.0 mg HM01 single oral dose, N = 6
[11] = male, human, plasma, 10 mg HM01 single oral dose, N = 3

Compound: COc1ccc([C@H](C)NC(=O)N(C)[C@@H]2CCN(C)CC2(C)C)c(Cl)c1Cl.Cl [AC01/HM01, 1-[(1S)-1-(2,3-dichloro-4-methoxyphenyl)ethyl]-3-methyl-3-[(4R)-1-methyl-3,3-dimethyl-4-piperidyl]-urea]
- AUClast/D [1, 4]: 4.899 (h * ng/mL)/mg
- Cmax/D [1, 4]: 1.357 (ng/mL)/mg
- tlast ([1]; 0.1 mg HM01 single oral dose, N = 6, median): 8.00 h
- AUClast/D [1, 5]: 9.396 (h * ng/mL)/mg
- Cmax/D [1, 5]: 0.9554 (ng/mL)/mg
- tlast ([1]; 0.3 mg HM01 single oral dose, N = 6, median): 16.00 h
- AUC∞/D [1, 6]: 15.19 (h * ng/mL)/mg
- CL/F [1, 6]: 65.8 L/h
- λz [1, 6]: 0.0821 h⁻¹
- AUClast/D [1, 7]: 14.71 (h * ng/mL)/mg
- AUC∞/D [1, 7]: 16.94 (h * ng/mL)/mg
- CL/F [1, 7]: 59.0 L/h
- Cmax/D [1, 7]: 1.280 (ng/mL)/mg
- λz [1, 7]: 0.0648 h⁻¹
- tlast ([1]; 1.0 mg HM01 single oral dose, N = 6, median): 36.00 h
- AUClast/D [1, 8]: 17.61 (h * ng/mL)/mg
- AUC∞/D [1, 8]: 17.88 (h * ng/mL)/mg
- CL/F [1, 8]: 55.9 L/h
- Cmax/D [1, 8]: 1.528 (ng/mL)/mg
- λz [1, 8]: 0.0646 h⁻¹
- tlast ([1]; 10 mg HM01 single oral dose, N = 3, median): 72.00 h
- half-life ([1]; male, human, plasma, oral, similar for all doses, read-out: arithmetic mean half-life of HM01): 9 to 11 h
- clearance ([1]; male, human, plasma, oral, similar for all doses, read-out: geometric mean clearance of HM01): 932 to 1100 mL/min
- Tmax ([1]; male, human, plasma, oral, similar for all doses, read-out: median tmax of HM01): 3 to 4 h
- apparent volume of distribution (Vz/F) ([1]; male, human, plasma, oral, similar for all doses, read-out: volume of distribution of HM01): 801 to 911 L
- AUC(0-t) ([1]; male, human, plasma, 0.1 mg, 0.1 mg HM01 single oral dose, fasted healthy males, N = 6, read-out: AUClast): 0.49 ng·h/mL
- AUC(0-t) ([1]; male, human, plasma, 0.3 mg, 0.3 mg HM01 single oral dose, N = 6, read-out: AUClast): 2.82 ng·h/mL
- AUC(0-t) ([1]; male, human, plasma, 0.3 mg, 0.3 mg HM01 single oral dose, fasted healthy males, N = 6, read-out: AUC0-24h): 3.75 ng·h/mL
- AUC(0-t) ([1]; male, human, plasma, 1 mg, 1.0 mg HM01 single oral dose, N = 6, read-out: AUClast): 14.7 ng·h/mL
- AUC(0-t) ([1]; male, human, plasma, 1 mg, 1.0 mg HM01 single oral dose, fasted healthy males, N = 6, read-out: AUC0-24h): 13.4 ng·h/mL
- AUC(0-t) ([1]; male, human, plasma, 10 mg, 10 mg HM01 single oral dose, N = 3, read-out: AUClast): 176 ng·h/mL
- AUC(0-t) ([1]; male, human, plasma, 10 mg, 10 mg HM01 single oral dose, fasted healthy males, N = 3, read-out: AUC0-24h): 149 ng·h/mL
- Cmax ([1]; male, human, plasma, 0.1 mg HM01 single oral dose, N = 6): 0.136 ng/mL
- Tmax ([1]; male, human, plasma, 0.1 mg HM01 single oral dose, N = 6, median, read-out: tmax): 3 h
- Cmax ([1]; male, human, plasma, 0.3 mg HM01 single oral dose, N = 6): 0.287 ng/mL
- Tmax ([1]; male, human, plasma, 0.3 mg HM01 single oral dose, N = 6, median, read-out: tmax): 4 h
- half-life ([1]; male, human, plasma, 0.3 mg HM01 single oral dose, n = 5, arithmetic mean, read-out: t1/2 (converted)): 8.83 h
- AUC(0-inf) [1, 9]: 4.56 ng·h/mL
- MRT [1, 9]: 14.4 h
- Vd/F [1, 9]: 801 L
- half-life ([1]; male, human, plasma, 1.0 mg HM01 single oral dose, N = 6, arithmetic mean, read-out: t1/2 (converted)): 11 h
- AUC(0-inf) [1, 10]: 16.9 ng·h/mL
- Cmax [1, 10]: 1.28 ng/mL
- MRT [1, 10]: 15.3 h
- Vd/F [1, 10]: 911 L
- Tmax ([1]; male, human, plasma, 1.0 mg HM01 single oral dose, N = 6, median, read-out: tmax): 4 h
- half-life ([1]; male, human, plasma, 10 mg HM01 single oral dose, N = 3, arithmetic mean, read-out: t1/2 (converted)): 10.9 h
- AUC(0-inf) [1, 11]: 179 ng·h/mL
- Cmax [1, 11]: 15.3 ng/mL
- MRT [1, 11]: 14.2 h
- Vd/F [1, 11]: 866 L
- Tmax ([1]; male, human, plasma, 10 mg HM01 single oral dose, N = 3, median, read-out: tmax): 3 h
- dose dependence of AUC∞ ([1]; single oral doses of HM01): dose proportional increase
- dose dependence of max ([1]; single oral doses of HM01): dose proportional increase
- IGF-1 serum levels, dose groups vs placebo [2]: No relevant differences
- TEAEs reported ([3]; 0.1 mg): no TEAEs
- number of TEAEs ([3]; 0.3 mg): 5 TEAEs
- number of TEAEs ([3]; 1.0 mg): 7 TEAEs
- subjects reporting TEAEs of moderate intensity ([3]; 1.0 mg, hot flush): 1 subject
- number of TEAEs ([3]; 10 mg): 19 TEAEs
- subjects reporting TEAEs of moderate intensity ([3]; 10 mg, sinus bradycardia): 1 subject
- number of subjects reporting TEAEs and number of TEAEs, dose dependence ([3]; 0.1-10 mg single oral dose): increased dose-dependently
- mean systolic and diastolic blood pressure and body temperature ([3]; after dosing / between treatment groups): no clinically relevant changes
- intensity of TEAEs ([3]; all dose groups): Most TEAEs were of mild intensity
- laboratory parameters, differences between dosing groups ([3]; in vivo): no clinically relevant differences
- most frequently reported TEAEs ([3]; started mainly shortly after dosing, short duration): nervous system disorder (mainly headache) and cardiac disorders (mainly sinus bradycardia)
